The values below come from PubChem BioAssay AID179 (DTP/NCI, 2004).

Usually EC50 stands for the concentration that produces a half-maximal response. Usually IC50 stands for the concentration at which inhibition is half-maximal. Read a high IC50 as lower potency.

SMILES strings stand for the structures. Activity calls are given as the source filed them.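 Rule for the calls: active = compounds giving half or more protection of infected cells from virus-caused growth loss, again on retest; inactive = the rest.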 Where a SMILES comes first, the peptide text is derived from it.

In this experiment the test system is CEM cells HIV-1 protection, formazan growth assay. The experiment can be described thus: NCI AIDS Antiviral Assay. The note with it: for IC50: measured here: growth of uninfected CEM cells. The method, boiled down:
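Protection of CEM cells against HIV-1 was scored from cell growth (soluble formazan) across five concentrations, with parallel uninfected cells. Lack of protection may reflect toxicity.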

Consider `Cc1c(N)c(=O)oc2cc3occc(=O)c3cc12`, for which the EC50 is over 20.4 µM and the IC50 came out at 13.5 µM.

As to `COc1cc2cc[n+]3c(C)c4cc(OC)c(OC)cc4c([O-])c3c2cc1OC`, the EC50 was over 200 µM and the half-maximal inhibitory concentration (IC50) was determined as 123 µM.

Regarding `CNC(=S)N/N=C(C)\C(=N/NC(=S)NC)c1ccccc1`, the EC50 is over 200 µM and the IC50 worked out at 29.5 µM.

`CCCCc1ccc(Nc2ncc3[nH]cnc3n2)cc1`: the EC50 is over 200 µM and the IC50 came out at 29.5 µM.

As to `COc1ccc2[nH]c3c(c2c1)CC(=O)N1CCC[C@H](C1)CC31OCCCO1`, the EC50 is over 200 µM and the IC50 was determined as 112 µM.

With `Cc1cc(O)c2c(c1)C(C1c3cccc(O)c3C(=O)c3c(O)cc(C)cc31)c1cccc(O)c1C2=O` (centres undefined), the EC50 was over 2 µM and the IC50 was 0.0912 µM.

As to `Cc1noc(C)c1CCCOC1COc2ccccc2OCCOCCOc2ccccc2OC1`, the EC50 is over 100 µM and the IC50 is over 100 µM.

For the compound `CC(C)(CN(Cc1ccccc1)Cc1ccccc1)[N+](=O)[O-]`, the outcome was inactive.

Regarding `Cc1cc(C)cc(-n2c3nc(=O)n(C)c(=O)c-3nc3ccccc32)c1`, the result was inactive.

In the case of `NC(=O)N/N=C1/CC2CCCCC2c2ccccc21` (centres undefined), the EC50 was over 200 µM and the IC50 was 34.7 µM.

On to `O=C1C=C(Nc2ccccc2C(=O)CC(=O)C(=O)Nc2ccc(Cl)cc2)c2ccccc2C1=O`, for which the EC50 is over 39.8 µM and the IC50 turned out to be 2.19 µM.

`COC(=O)[C@]1(C)CCC[C@]2(C)c3cc(Br)c(C(C)C)cc3CC[C@H]12`: the EC50 is over 100 µM and the 50% inhibitory concentration (IC50) was over 100 µM.

`O=C(N/N=C1/C(=O)N(c2ccc(Cl)cc2Cl)C(=O)C(=O)C1c1nc2ccccc2o1)c1ccccc1O` (centres undefined): the result was inactive.

`O=C(NC(Nc1ccc(F)cc1)(C(F)(F)F)C(F)(F)F)C(C(F)(F)F)C(F)(F)F`: the outcome was inactive.

On to `[O-]c1c2cc(-[n+]3c(-c4ccccc4)cc(-c4ccccc4)cc3-c3ccccc3)cc1CO[C@@H](c1ccccc1)[C@H](c1ccccc1)OCCOCCO[C@@H](c1ccccc1)[C@H](c1ccccc1)OC2`, for which the EC50 was over 2 µM and the IC50 amounted to 0.105 µM.

Regarding `COc1ccc(C2C3=C(CCCC3=O)N(c3ccccc3)C3=C2C(=O)CCC3)cc1`, the EC50 was over 200 µM and the IC50 is over 200 µM.

`Sc1ccccc1C1N(Cc2ccc(Cl)cc2)CCCN1Cc1ccc(Cl)cc1`: the EC50 is over 100 µM and the IC50 came to 5.75 µM.

For `COc1cccc(/C=N/[N-]C(N)=O)c1[O-].[Cu+2].[OH3+]`, the EC50 was over 64.6 µM and the IC50 is 10.5 µM.

Take `NC(=O)c1ncn(CCCCCO)c1N`: the EC50 was over 200 µM and the IC50 was over 200 µM.

Regarding `COC(=O)c1ccc(-c2nc(C#N)c(N)o2)cc1`, the EC50 is over 200 µM and the IC50 is over 200 µM.

Consider `N#C/C(=C\c1ccccc1[N+](=O)[O-])C(=O)O`, for which the EC50 is over 603 µM and the IC50 worked out at 363 µM.

As for `COC(=O)c1ccccc1/C=C1\Cc2cc3c(cc2C1=O)CCC3`, the EC50 was over 200 µM and the half-inhibitory concentration (IC50) is 45.7 µM.

In the case of `C=C(C)[C@H]1CC[C@@]2(C)C(C1)[C@H](C)CC[C@@H]2O` (some centres undefined), the result was inactive.

`Cc1cc2cc3c(=O)[nH]c(=O)cc-3n(CC(O)C(O)C(O)CO)c2cc1C` (centres undefined) had an EC50 of over 200 µM and an IC50 of over 200 µM.

For the compound `C=C(CN(C)C)C(=O)c1ccc(OC)cc1`, the outcome was inactive.

With `CCCCCCCCCCCCCCC(O)C[N+](C)(CCO)CCO` (centres undefined), the EC50 is over 200 µM and the IC50 came out at 1.1 µM.

For the compound `CCOc1ccc(NC(=O)CC2Sc3ccccc3NC2=O)cc1` (centres undefined), the EC50 is over 11 µM and the concentration for half-maximal inhibition (IC50) is over 11 µM.

Take `CCN(CC)CCCNc1nccc2c(C)c3[nH]c4ccncc4c(=O)c3cc12`: the EC50 was over 174 µM and the IC50 is 1.07 µM.

In the case of `CC(=O)OCC1C(C(C)OC(C)=O)CCC2C1CCC1(C)C(OC(C)=O)CCC21` (centres undefined), the EC50 is over 20.4 µM and the IC50 was determined as 16.6 µM.

For the compound `CNC(SC)=C1C(=O)OC(C)(C)OC1=O`, the EC50 was over 1070 µM and the IC50 turned out to be 457 µM.

For the compound `COC1(c2cccs2)OC(=O)c2c([N+](=O)[O-])cccc21` (centres undefined), the outcome was inactive.

Regarding `O=C(O)c1cc2c(cc1C(=O)O)C(=O)C(c1ccccc1)C2=O`, the EC50 is over 200 µM and the IC50 is over 200 µM.

With `Cc1cc(C23OC4COC(C)(C)OC4C2OC(C)(C)O3)nc2ccccc12` (centres undefined), the EC50 was over 200 µM and the IC50 is 102 µM.

With `N#CC1(Cc2ccccc2[N+](=O)[O-])c2ccccc2C2C(N1C(=O)c1ccccc1)C2(Cl)Cl` (centres undefined), the outcome was inactive.

On to `O=c1/c(=C/c2ccccc2F)sc2nc3ccccc3n12`, for which the EC50 is over 1.82 µM and the IC50 is over 1.82 µM.

`NC(=O)CNC(=O)c1ccccc1SC(=O)CC[n+]1ccccc1`: the EC50 is over 200 µM and the IC50 worked out at 102 µM.

For the compound `Cc1cccc(NC(=O)/C=C/c2ccc(N(CCC#N)CCC#N)cc2C)c1`, the EC50 was over 676 µM and the IC50 is over 676 µM.

Regarding `COC1(C)OC23C(=O)N(C)C(=O)N(C)C2(O1)N(C(C)=O)C(=O)N3C` (centres undefined), the EC50 is over 200 µM and the IC50 was over 200 µM.

With `CCC1(c2ccccc2)NC(=O)N(C)C1=O` (centres undefined), the EC50 was over 200 µM and the IC50 is over 200 µM.

Consider `CCOC(=O)c1[nH]c2ccccc2c1C(=O)C[C@H](NC(=O)C(F)(F)F)C(=O)OC`, for which the EC50 is over 200 µM and the IC50 is over 200 µM.

Turning to `CC(C)CN(CC(C)C)C(=O)C1CCCC[C@@H]1C(=O)O` (some centres undefined), the EC50 is over 891 µM and the IC50 was over 891 µM.

Turning to `N#Cc1c2c([nH]c(=O)c1C#N)CCCC2`, the EC50 is over 200 µM and the IC50 was over 200 µM.

For `O=c1cc(-c2ccccc2)[nH]c2nccn12`, the EC50 is over 200 µM and the IC50 was over 200 µM.

On to `CSc1ccccc1NC1=NCCO1`, for which the EC50 was over 200 µM and the IC50 was over 200 µM.

On to `COc1ccc(C(c2ccccc2)(c2ccc(OC)cc2)N2C(=O)NC3C(CCCCC(=O)NCCCCCCOP(OCCC#N)N(C(C)C)C(C)C)SCC32)cc1` (centres undefined), for which the EC50 was over 4.47 µM and the IC50 is over 4.47 µM.

For the compound `COc1ccc(-c2oc3cc(-c4cc5oc(-c6ccc(OC)cc6)c(-c6ccc(OC)cc6)c5cc4OC)c(OC)cc3c2-c2ccc(OC)cc2)cc1`, the EC50 was over 200 µM and the IC50 is over 200 µM.

Take `O=C(O)c1cnnc2ccccc12`: the EC50 was over 1450 µM and the IC50 is over 1450 µM.

Take `O=C(Nc1ccc(Cl)cc1C(=O)O)c1ccc([N+](=O)[O-])cc1`: the result was inactive.

Regarding `COc1ccc(-c2cc(=O)c3c(O)cc(O)cc3o2)cc1`, the EC50 is over 105 µM and the IC50 was over 105 µM.

In the case of `CCC(C)C(NC(=O)C(CC(C)C)NC(=O)CNC(=O)C(CC(N)=O)NC(=O)C(CC(=O)O)NC(=O)C(N)CC(C)C)C(=O)NC(CC(C)C)C(=O)NC(C)C(=O)NC(Cc1ccc(O)cc1)C(=O)O` (centres undefined) (H-LDNGLILAY-OH; configuration not given here), the EC50 is over 50.1 µM and the IC50 is over 50.1 µM.

`O=C1C(=O)c2ccccc2C(O)=C1C(/C=C/c1ccccc1)C1=C(O)c2ccccc2C(=O)C1=O`: the EC50 was over 200 µM and the IC50 is 9.55 µM.

Take `Nc1nc(N)c2nc(-c3ccccc3)c(N)nc2n1`: the outcome was inactive.

Regarding `O=C(NNc1nc(Cl)nc(Cl)n1)c1ccccc1`, the EC50 was over 200 µM and the IC50 was over 200 µM.

On to `Nc1ccc(F)cc1-c1nc2ccc(F)cc2c2nc3ccccc3n12`, for which the result was inactive.

With `CCOC(=O)C(NC(=O)c1ccccc1)(N1CCN(c2cc3c(cc2F)c(=O)c(C(=O)O)cn3CC)CC1)C(F)(F)F` (centres undefined), the EC50 is over 200 µM and the IC50 is 34.7 µM.

As to `CN(Cc1ccccc1)C(=NC#N)N(Cc1ccccc1)Cc1ccccc1`, the EC50 was over 19.5 µM and the IC50 is over 19.5 µM.

As for `O=C1C=C(N2CCCCC2)c2cnccc2C1=O`, the result was inactive.

Take `CCOc1ccc(-n2c(=O)c3nn4c(=O)n(-c5ccc(OCC)cc5)c(=O)c4nn3c2=O)cc1`: the EC50 was over 200 µM and the IC50 is over 200 µM.

For the compound `O=C(Cc1cc[n+]([O-])cc1)C(=O)Nc1cc(Cl)c(Cl)cc1Cl`, the EC50 is over 692 µM and the IC50 came out at 631 µM.

With `COC1CCON1C(=O)c1ccccc1` (centres undefined), the EC50 is over 200 µM and the IC50 is over 200 µM.

Consider `O=C1/C(=C/c2ccccc2[N+](=O)[O-])CCCc2ccccc21`, for which the EC50 was over 200 µM and the IC50 turned out to be 34.7 µM.

As for `OCC(O)C(O)C(O)c1nn[nH]n1` (centres undefined), the outcome was inactive.

As to `NC1CC(=O)c2c(Br)csc21` (centres undefined), the EC50 was over 200 µM and the IC50 turned out to be 50.1 µM.

`Cc1ccc([B-]23OCC[N+]2(CNC(=O)C2=C(O)C4(O)C(=O)C5=C(O)c6c(O)cccc6C(C)(O)C5CC4C(N(C)C)C2=O)CCO3)cc1` (centres undefined): the EC50 is over 53.7 µM and the IC50 was over 53.7 µM.

On to `O=C(N/C(=C/c1ccc(Cl)cc1)c1nc2ccccc2c(=O)n1Nc1ccc([N+](=O)[O-])cc1[N+](=O)[O-])c1ccccc1`, for which the EC50 is over 200 µM and the IC50 turned out to be 178 µM.

Regarding `COC(=O)CCCC=C(c1cc(Br)c(OC)c(C(=O)OC)c1)c1cc(Br)c(OC)c(C(=O)OC)c1`, the EC50 was 1.82 µM and the IC50 is 42.7 µM.

As to `O=C1NC(=O)C(Cc2ccccc2)(Cc2ccccc2)S1`, the EC50 was over 17.4 µM and the IC50 is over 17.4 µM.

As to `COc1ccc2c(c1)C/C(=C\c1cccc3ccccc13)C2=O`, the EC50 is over 200 µM and the concentration for half-maximal inhibition (IC50) is 51.3 µM.

Take `O=C1CCc2cc3c(cc21)CC1(Cc2cc4c(cc2C1)CCCC4)C3`: the EC50 is over 200 µM and the IC50 is 138 µM.

With `NC(CCCC(N)P(=O)(O)c1ccccc1)P(=O)(O)c1ccccc1` (centres undefined), the EC50 was over 661 µM and the IC50 was over 661 µM.

With `CN(C)CCSC1=Nc2ccc(Cl)cc2C(c2ccccc2Cl)N(C)C1` (centres undefined), the EC50 was over 200 µM and the IC50 worked out at 20 µM.
